Measured values taken from ChEMBL document CHEMBL4354883, “Design, Synthesis, and Biological Evaluation of HSP90 Inhibitor-SN38 Conjugates for Targeted Drug Accumulation” (J Med Chem, 2020).
Active and inactive are the calls of the source. The calls are words filed in the database; no cut-off is given here.

Tests used:
[1] = molecular target: T1, Heat shock protein HSP90 (Homo sapiens, UniProt P07900+P08238); assay: Inhibition of HSP90 in human A549 cells assessed as upregulation of HSP70 expression at 0.2 to 5 uM after 24 hrs by Western blot analysis; assay type: cell-based
[2] = molecular target: T1, Heat shock protein HSP90; assay: Inhibition of HSP90 in human A549 cells assessed as downregulation of AKT protein expression after 24 hrs by Western blot analysis; assay type: cell-based
[3] = molecular target: T2, DNA topoisomerase 1 (Homo sapiens) (UniProt P11387); assay: Inhibition of topoisomerase 1 in human A549 cells assessed as increase in phosphorylated KAP1 expression at 0.2 to 5 uM after 24 hrs by Western blot analysis; assay type: cell-based
T2 sequence (whole entry): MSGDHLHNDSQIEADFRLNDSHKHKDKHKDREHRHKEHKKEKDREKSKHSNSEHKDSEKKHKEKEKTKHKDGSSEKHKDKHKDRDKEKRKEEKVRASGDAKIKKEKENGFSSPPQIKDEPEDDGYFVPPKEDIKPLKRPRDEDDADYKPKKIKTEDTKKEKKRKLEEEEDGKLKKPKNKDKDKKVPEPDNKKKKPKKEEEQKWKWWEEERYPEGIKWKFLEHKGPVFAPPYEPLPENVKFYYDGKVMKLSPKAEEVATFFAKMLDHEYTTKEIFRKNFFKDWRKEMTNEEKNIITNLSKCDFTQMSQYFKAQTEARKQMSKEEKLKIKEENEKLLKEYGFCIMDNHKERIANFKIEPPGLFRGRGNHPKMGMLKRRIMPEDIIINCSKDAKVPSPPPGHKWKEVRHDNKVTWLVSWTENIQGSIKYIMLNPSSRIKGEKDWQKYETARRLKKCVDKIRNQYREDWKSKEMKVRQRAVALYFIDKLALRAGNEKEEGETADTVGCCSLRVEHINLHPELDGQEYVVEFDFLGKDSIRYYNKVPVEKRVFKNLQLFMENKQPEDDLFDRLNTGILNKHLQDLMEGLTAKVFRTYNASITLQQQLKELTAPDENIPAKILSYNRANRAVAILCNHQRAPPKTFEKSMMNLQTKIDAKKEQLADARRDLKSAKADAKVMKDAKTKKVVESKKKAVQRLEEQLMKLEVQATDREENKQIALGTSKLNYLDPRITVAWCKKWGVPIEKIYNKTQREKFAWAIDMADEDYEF

[4] = molecular target: T2, DNA topoisomerase 1 (Homo sapiens); assay: Inhibition of topoisomerase 1 in human HCT116 cells assessed as increase in phosphorylated KAP1 expression at 0.2 to 5 uM after 24 hrs by Western blot analysis; assay type: cell-based
[5] = molecular target: T1, Heat shock protein HSP90; assay: Inhibition of HSP90 in human HCT116 cells assessed as downregulation of AKT protein expression after 24 hrs by Western blot analysis; assay type: cell-based
[6] = molecular target: T1, Heat shock protein HSP90; assay: Inhibition of HSP90 in human HCT116 cells assessed as upregulation of HSP70 expression at 0.008 to 1 uM after 24 hrs by Western blot analysis; assay type: cell-based
[7] = Toxicity in kidney of mouse xenografted with human Capan1 cells assessed as pathological changes at 50 mg/kg, iv for every 2 days measured at 2 hrs post last dose by H and E staining based analysis; assay type: organism-based; settings: in vivo
[8] = Prodrug release in mouse plasma xenografted with human HCT116 cells assessed as increase in 7-ethyl-10-hydroxycamptothecin level at 50 mg/kg, iv administered as single dose and measured after 30 mins to 72 hrs by LC-MS/MS analysis; assay type: ADME, organism-based; settings: in vivo
[9] = Drug uptake in mouse plasma xenografted with human HCT116 cells assessed as increase in drug level with longer half life at 50 mg/kg, iv administered as single dose and measured after 30 mins to 72 hrs by LC-MS/MS analysis; assay type: ADME, organism-based; settings: in vivo
[10] = Prodrug release in tumor of mouse xenografted with human HCT116 cells assessed as increase in 7-ethyl-10-hydroxycamptothecin level by measuring retention time at 50 mg/kg, iv administered as single dose by LC-MS/MS analysis; assay type: ADME, organism-based, Neoplasm; settings: in vivo
[11] = Prodrug release in human A549 cells assessed as increase in 7-ethyl-10-hydroxycamptothecin level at 5 uM after 12 hrs by LC-MS/MS analysis; assay type: ADME, cell-based; settings: a549, 12 h
[12] = Prodrug release in tumor of mouse xenografted with human Capan1 cells assessed as increase in 7-ethyl-10-hydroxycamptothecin level at 50 mg/kg, iv after 72 hrs by LC-MS/MS analysis; assay type: ADME, organism-based, Neoplasm; settings: in vivo
[13] = molecular target: T2, DNA topoisomerase 1 (Homo sapiens); assay: Inhibition of topoisomerase 1 in human A549 cells assessed as increase in phosphorylated KAP1 expression after 24 hrs by Western blot analysis; assay type: cell-based
[14] = Toxicity in heart of mouse xenografted with human Capan1 cells assessed as pathological changes at 50 mg/kg, iv for every 2 days measured at 2 hrs post last dose by H and E staining based analysis; assay type: organism-based; settings: in vivo
[15] = Drug uptake in tumor of mouse xenografted with human HCT116 cells at 50 mg/kg, iv administered as single dose measured up to 72 hrs by LC-MS/MS analysis; assay type: ADME, organism-based, Neoplasm; settings: in vivo
[16] = tested on: Mus musculus; assay: In vivo inhibition of HSP90 in mouse xenografted with human Capan1 cells assessed as decrease in AKT protein expression at 50 mg/kg, iv for every 2 days measured at 2 hrs post last dose by Western blot analysis; assay type: functional, organism-based
[17] = molecular target: T1, Heat shock protein HSP90; assay: Inhibition of HSP90 in human A549 cells assessed as upregulation of HSP70 expression at 0.008 to 1 uM after 24 hrs by Western blot analysis; assay type: cell-based
[18] = tested on: Mus musculus; assay: In vivo inhibition of topoisomerase 1 in mouse xenografted with human Capan1 cells assessed as increase in phosphorylated KAP1 expression at 50 mg/kg, iv for every 2 days measured at 2 hrs post last dose by Western blot analysis; assay type: functional, organism-based
[19] = Stability of compound in PBS buffer assessed as drug degradation at 50 uM at pH 7.4 measured after 12 hrs by HPLC analysis; assay type: physicochemical; settings: read-out: Drug degradation
[20] = molecular target: T1, Heat shock protein HSP90; assay: Inhibition of HSP90 in human A549 cells assessed as downregulation of Akt expression at 0.008 to 1 uM after 24 hrs by Western blot analysis; assay type: cell-based
[21] = tested on: Mus musculus; assay: In vivo inhibition of HSP90 in mouse xenografted with human Capan1 cells assessed as increase in HSP70 protein expression at 50 mg/kg, iv for every 2 days measured at 2 hrs post last dose by Western blot analysis; assay type: functional, organism-based
[22] = tested on: Mus musculus; assay: Down regulation of topoisomerase 1 expression in mouse xenografted with human Capan1 cells at 50 mg/kg, iv for every 2 days measured at 2 hrs post last dose by Western blot analysis; assay type: functional, organism-based
[23] = molecular target: T1, Heat shock protein HSP90; assay: Inhibition of HSP90 in human HCT116 cells assessed as downregulation of Akt expression at 0.008 to 1 uM after 24 hrs by Western blot analysis; assay type: cell-based
[24] = Prodrug release in mouse plasma xenografted with human Capan1 cells assessed as increase in 7-ethyl-10-hydroxycamptothecin level at 50 mg/kg, iv after 30 mins to 72 hrs by LC-MS/MS analysis; assay type: ADME, organism-based; settings: in vivo
[25] = Drug uptake in human HL7702 cells in PBS solution at 5 uM after 6 hrs by confocal laser scanning microscopic analysis; assay type: ADME, cell-based; settings: l02, 6 h
[26] = Toxicity in spleen of mouse xenografted with human Capan1 cells assessed as pathological changes at 50 mg/kg, iv for every 2 days measured at 2 hrs post last dose by H and E staining based analysis; assay type: organism-based; settings: in vivo

## CCc1c2c(nc3ccc(OC(=O)N4CCC(NC(=O)c5noc(-c6cc(C(C)C)c(O)cc6O)c5-c5ccc(CN6CCOCC6)cc5)CC4)cc13)-c1cc3c(c(=O)n1C2)COC(=O)[C@]3(O)CC
[1]
  inhibition: Active
[2]
  inhibition: Dose-dependent effect
[3]
  inhibition: inactive
[4]
  inhibition: inactive
[5]
  inhibition: Dose-dependent effect

## CCc1c2c(nc3ccc(O)cc13)-c1cc3c(c(=O)n1C2)COC(=O)[C@@]3(CC)OC(=O)CNC(=O)c1noc(-c2cc(C(C)C)c(O)cc2O)c1-c1ccc(CN2CCOCC2)cc1
[6]
  inhibition: inactive
[7]
  Activity: Non-Toxic
[8]
  Drug metabolism: Metabolite_Detected
[9]
  Drug uptake: Active
[10]
  Retention_time: 72 h
[11]
  Drug metabolism: Metabolite_Detected
[12]
  Drug metabolism: Metabolite_Detected
[13]
  inhibition: Dose-dependent effect
[14]
  Activity: Non-Toxic
[15]
  Drug uptake: Active
[16]
  inhibition: Active
[17]
  inhibition: inactive
[18]
  inhibition: Active
[19]
  degraded at 12 h, 50 µM: 75%
[20]
  inhibition: inactive
[21]
  inhibition: Active
[22]
  inhibition: Active
[23]
  inhibition: inactive
[24]
  Drug metabolism: Metabolite_Detected
[25]
  Drug uptake: Not Active
[26]
  Activity: Toxic
